In ChEMBL document CHEMBL3045982, “Design, synthesis and structure-activity relationship of novel coumarin derivatives” (Pest Manag Sci, 2011):

Columns and labels:
[1] = test system: Pseudoperonospora cubensis; experiment: Fungicidal activity against Pseudoperonospora cubensis at 50 mg/L relative to untreated control; type: functional
[2] = test system: Pseudoperonospora cubensis; experiment: Fungicidal activity against Pseudoperonospora cubensis at 100 mg/L relative to untreated control; type: functional
[3] = test system: Pseudoperonospora cubensis; experiment: Fungicidal activity against Pseudoperonospora cubensis at 25 mg/L relative to untreated control; type: functional
[4] = test system: Pseudoperonospora cubensis; experiment: Fungicidal activity against Pseudoperonospora cubensis at 6.25 mg/L relative to untreated control; type: functional
[5] = test system: Pseudoperonospora cubensis; experiment: Fungicidal activity against Pseudoperonospora cubensis at 200 mg/L relative to untreated control; type: functional
Cytospora [6] = experiment: Fungicidal activity against Cytospora mandshurica Miura under green house condition in presence of 98% compound; type: functional, organism-based
Cytospora [7] = experiment: Fungicidal activity against Cytospora mandshurica Miura at 1000 mg/L of 25% compound under field trials condition relative to untreated control; type: functional
Cytospora [8] = experiment: Fungicidal activity against Cytospora mandshurica Miura under green house condition in presence of 20% compound; type: functional, organism-based
Cytospora [9] = experiment: Fungicidal activity against Cytospora mandshurica Miura at 1000 mg/L of 20% compound under field trials condition relative to untreated control; type: functional
Cytospora [10] = experiment: Fungicidal activity against Cytospora mandshurica Miura under green house condition in presence of 96% compound; type: functional, organism-based
Cytospora [11] = experiment: Fungicidal activity against Cytospora mandshurica Miura at 500 mg/L of 20% compound under field trials conditions relative to untreated control; type: functional

| SMILES | Activity [1] [%] | Activity [2] [%] | Activity [3] [%] | Activity [4] [%] | Activity [5] [%] | EC50 (Cytospora [6]) [µg/mL] | Efficacy (Cytospora [7]) [%] | EC50 (Cytospora [8]) [µg/mL] | Efficacy (Cytospora [9]) [%] | EC50 (Cytospora [10]) [µg/mL] | Efficacy (Cytospora [11]) [%] |
| --- | --- | --- | --- | --- | --- | --- | --- | --- | --- | --- | --- |
| CCCc1cc(=O)oc2cc(OCc3ccccc3/C(=C\OC)C(=O)OC)ccc12 | 100 | 100 | 95 | 55 | 100 | – | – | – | – | – | – |
| CO/N=C(/C(=O)OC)c1ccccc1COc1ccccc1C [KRESOXIM-METHYL] | – | – | 35 | 0 | – | – | – | – | – | – | – |
| CO/C=C(/C(=O)OC)c1ccccc1COc1ccc2c(-c3ccc(Cl)nc3)cc(=O)oc2c1 | 75 | 80 | 40 | 0 | 90 | – | – | – | – | – | – |
| CO/C=C(/C(=O)OC)c1ccccc1COc1ccc2c(C)cc(=O)oc2c1/C(C)=N/OC | – | – | – | – | 30 | – | – | – | – | – | – |
| CO/C=C(/C(=O)OC)c1ccccc1COc1cccc2c(C)c(C)c(=O)oc12 | – | – | – | – | 0 | – | – | – | – | – | – |
| CO/C=C(/C(=O)OC)c1ccccc1COc1ccc2c3c(c(=O)oc2c1C)CCCC3 | – | – | – | – | 50 | – | – | – | – | – | – |
| CO/C=C(/C(=O)OC)c1ccccc1COc1ccc2c(C)cc(=O)oc2c1C(C)=O | – | – | – | – | 60 | – | – | – | – | – | – |
| CO/C=C(/C(=O)OC)c1ccccc1COc1ccc2oc(=O)c(C)c(C)c2c1 | – | – | – | – | 70 | – | – | – | – | – | – |
| CO/C=C(/C(=O)OC)c1ccccc1COc1cc2oc(=O)cc(C)c2cc1C(C)=O | 80 | 85 | 50 | 0 | 90 | – | – | – | – | – | – |
| CO/C=C(/C(=O)OC)c1ccccc1COc1ccc2c(-c3ccc(Cl)cc3)cc(=O)oc2c1 | – | – | – | – | 70 | – | – | – | – | – | – |
| COC(=O)N(OC)c1ccccc1COc1ccc2c(C)c(C)c(=O)oc2c1C | 75 | 80 | 50 | 0 | 90 | – | – | – | – | – | – |
| CO/C=C(/C(=O)OC)c1ccccc1COc1ccc2c(-c3ccccc3)cc(=O)oc2c1C | 90 | 90 | 50 | 30 | 95 | – | – | – | – | – | – |
| CCCc1c(C)c2ccc(OCc3ccccc3/C(=C\OC)C(=O)OC)cc2oc1=O | 30 | 80 | 20 | 0 | 100 | – | – | – | – | – | – |
| CO/C=C(/C(=O)OC)c1ccccc1COc1ccc2c(C)c(F)c(=O)oc2c1 | 100 | 100 | 95 | 60 | 100 | – | – | – | – | – | – |
| CO/C=C(/C(=O)OC)c1ccccc1COc1cc(=O)oc2ccccc12 | 30 | 70 | 0 | 0 | 85 | – | – | – | – | – | – |
| CO/C=C(/C(=O)OC)c1ccccc1COc1ccc2c3c(c(=O)oc2c1)CCC3 | – | – | 100 | 40 | – | – | – | – | – | – | – |
| CO/C=C(/C(=O)OC)c1ccccc1COc1ccc2c3c(c(=O)oc2c1C)CCC3 | – | – | – | – | 0 | – | – | – | – | – | – |
| CO/C=C(/C(=O)OC)c1ccccc1COc1ccc2oc(=O)cc(C)c2c1 | 30 | 60 | 0 | 0 | 85 | – | – | – | – | – | – |
| CO/C=C(/C(=O)OC)c1ccccc1COc1ccc2c(-c3ccc(C(F)(F)F)cc3)cc(=O)oc2c1 | – | 70 | – | – | 85 | – | – | – | – | – | – |
| CO/C=C(/C(=O)OC)c1ccccc1COc1ccc2c3c(c(=O)oc2c1)CCCC3 | – | – | 100 | 75 | – | – | – | – | – | – | – |

| SMILES | Activity [1] [%] | Activity [2] [%] | Activity [3] [%] | Activity [4] [%] | Activity [5] [%] | EC50 (Cytospora [6]) [µg/mL] | Efficacy (Cytospora [7]) [%] | EC50 (Cytospora [8]) [µg/mL] | Efficacy (Cytospora [9]) [%] | EC50 (Cytospora [10]) [µg/mL] | Efficacy (Cytospora [11]) [%] |
| --- | --- | --- | --- | --- | --- | --- | --- | --- | --- | --- | --- |
| CO/C=C(/C(=O)OC)c1ccccc1COc1cc2oc(=O)cc(C)c2cc1/C(C)=N\OC | – | – | – | – | 80 | – | – | – | – | – | – |
| CCc1cc(=O)oc2cc(OCc3ccccc3/C(=C\OC)C(=O)OC)ccc12 | 100 | 100 | 100 | 50 | 100 | – | – | – | – | – | – |
| CO/C=C(/C(=O)OC)c1ccccc1COc1ccc2c(-c3ccccc3)cc(=O)oc2c1 | 80 | 100 | 60 | 50 | 100 | – | – | – | – | – | – |
| CCCCc1c(C)c2ccc(OCc3ccccc3N(OC)C(=O)OC)cc2oc1=O | 90 | 100 | 75 | 50 | 100 | – | – | – | – | – | – |
| CCc1c(C)c2ccc(OCc3ccccc3/C(=C\OC)C(=O)OC)cc2oc1=O | 80 | 100 | 20 | 0 | 100 | – | – | – | – | – | – |
| CO/C=C(/C(=O)OC)c1ccccc1COc1ccc2c(C)cc(=O)oc2c1 | 100 | 100 | 97 | 45 | 100 | – | – | – | – | – | – |
| CO/C=C(/C(=O)OC)c1ccccc1COc1ccc2c(C)c(Cl)c(=O)oc2c1 | 100 | 100 | 100 | 75 | 100 | – | – | – | – | – | – |
| CO/C=C(/C(=O)OC)c1ccccc1COc1ccc2c(C)c(C)c(=O)oc2c1 | 100 | 100 | 100 | 85 | 100 | – | – | – | – | – | – |
| CO/C=C(/C(=O)OC)c1ccccc1COc1cccc(C(F)(F)F)n1 [PICOXYSTROBIN] | – | – | 95 | 50 | – | – | – | – | – | – | – |
| CO/C=C(/C(=O)OC)c1ccccc1Oc1cc(Oc2ccccc2C#N)ncn1 [AZOXYSTROBIN] | – | – | 100 | 95 | – | 2.78 | 73.5 | – | – | – | – |
| CCCCc1c(C)c2ccc(OCc3ccccc3/C(=C\OC)C(=O)OC)cc2oc1=O [Coumoxystrobin] | 100 | 100 | 100 | 95 | 100 | – | – | 1.72 | 97.3 | 1.83 | 88.5 |
| CO/C=C(/C(=O)OC)c1ccccc1COc1ccc2c(C(F)(F)F)cc(=O)oc2c1 | 80 | 95 | 70 | 50 | 100 | – | – | – | – | – | – |
| CNC(=O)/C(=N/OC)c1ccccc1COc1ccc2c(C)c(C)c(=O)oc2c1C | 30 | 85 | 20 | 0 | 95 | – | – | – | – | – | – |
| CCCCCCc1c(C)c2ccc(OCc3ccccc3/C(=C\OC)C(=O)OC)cc2oc1=O | 100 | 100 | 100 | 80 | 100 | – | – | – | – | – | – |
| CO/N=C(/C(=O)OC)c1ccccc1COc1ccc2c(C)c(Cl)c(=O)oc2c1 | 90 | 100 | 85 | 65 | 100 | – | – | – | – | – | – |
| CO/C=C(/C(=O)OC)c1ccccc1COc1ccc2c(C(C)C)cc(=O)oc2c1 | 100 | 100 | 95 | 50 | 100 | – | – | – | – | – | – |
| COC(=O)N(OC)c1ccccc1COc1ccc2c(C)c(C)c(=O)oc2c1 | 100 | 100 | 85 | 65 | 100 | – | – | – | – | – | – |
| CO/C=C(/C(=O)OC)c1ccccc1COc1ccc2ccc(=O)oc2c1 | 70 | 100 | 50 | 0 | 100 | – | – | – | – | – | – |
| CO/N=C(/C(=O)OC)c1ccccc1COc1ccc2c(C)c(C)c(=O)oc2c1C | 60 | 85 | 50 | 40 | 95 | – | – | – | – | – | – |
